In patent US9439976B2, “Compositions and methods for using cathepsin E cleavable substrates” (The Methodist Hospital System, priority 2013, dated 2016):
Where a SMILES comes first, the peptide text is derived from it. The star is where a group is joined. X1 = O=C(O)CCC(=O)CN*

Tests used:
MPanc96-CTSE cells [1] = format: cell-based; details: human
Protocol: To determine the number of viable cells after light treatment, a homogeneous colorimetric method, the MTS Cell cytotoxicity assay (Cell Titer 96® Aqueous, Promega, Madison, Wis.) was used. MPanc96-CTSE and MPanc96-FG30 (2×10^4) cells were incubated with various concentrations (0.1, 0.5, 1, and 5 μM) of the 5-ALA prodrug for 30 minutes, followed by treatment with a range of light doses (2.5, 5, 10, and 15 J/cm^2) and incubated overnight at 37° C. and 5% CO2 in 96-well plates. Cells treated only with light or the 5-ALA prodrug were used as negative controls. […] The formation of colored formazan was measured directly in 96-well assay plates at 490 nm absorbance without additional processing. […] After PDT, MPanc96-CTSE cells were washed with PBS buffer, treated with 1 μL YO-PRO-1 and PI stock solution per milliliter medium and incubated on ice for 25 minutes, followed by fluorescence imaging using an inverted epifluorescence microscope. […]
To quantitate cell viability upon photodynamic treatment with the 5-ALA prodrug, PDAC cells were subjected to homogeneous, colorimetric MTS cytotoxicity assay. […] After incubating PDAC cells with the tetrazolium compound, living PDAC cells in culture were quantified directly by measuring the absorbance of the produced formazan product at 490 nm.

MPanc96-CTSE cells [2] = experiment: Cellular release of 5-ALA, PpIX fluorescence imaging, Cath E-high cells; format: cell-based, human; details: unfixed MPanc96-CTSE cells, 0.5 μM, 37° C.
Protocol: Mpanc96-CTSE and Mpanc96-FG30 cells (1.2×10^4) were treated in 96-well plates with various concentrations (0.1, 0.5, 1, and 5 μM in 100 μL) of 5-ALA prodrug, incubated for 30 minutes at 37° C., and washed several times with PBS. Fluorescence images of the cells were acquired using an inverted epifluorescence microscope and a TRITC (tetramethyl rhodamine isothiocyanate) filter (λex=557 nm and λem=576 nm). Free 5-ALA and untreated cells were included as controls. The possible light damage done in the absence of photosensitizer was evaluated by irradiating Cath E-positive Mpanc96-CTSE cells with various doses (2.5, 5, 10, 15, and 18 J/cm^2) of light using a diode laser system (652 nm; B&W TEK, Newark, Del.). Phototoxicity of the 5-ALA prodrug was assessed by incubating Mpanc96-CTSE and Mpanc96-FG30 cells in 96-well plates with 0.1 μM 5-ALA prodrug for 30 minutes at 37° C. The cells were washed several times with PBS, the medium was replaced with growth medium, and the cells were treated with a single dose of 10 J/cm2. After PDT, the treated cells and controls were incubated overnight followed by imaging to detect changes in cell morphology.

[3] = test system: PDAC (p53 conditional deletion/LSL-KrasG12D/Pdx1-Cre); experiment: In vivo photodynamic therapy, TUNEL staining of PDAC pancreas in genetically engineered mice; parameters: species or system mouse; details: mice with PDAC, 1 mg 5-ALA equivalent/kg i.v., 10 J/cm^2 light at 652 nm 1 hour after injection, tissue 24 hours later
Protocol: All animal studies were performed in compliance with the approved animal protocols and guidelines of Institutional Animal Care and Use Committee of University of Texas MD Anderson Cancer Center. […] Littermates without PDAC served as controls. LSL-KRasG12D, p53-floxed, and Pdx-1-Cre genetic mice were obtained from the Mouse Models for Human Cancer Consortium Repository (Rockville, Md.). Mice were divided into three groups of five transgenic mice with PDAC tumors and three normal littermate controls. Mice were injected with a single dose of saline, free 5-ALA, or the 5-ALA prodrug (1 mg 5-ALA equivalent/kg, 50 μL) intravenously through the tail vein using a 30 gauge needle. Mice were incubated for 60 minutes in a full metabolically active environment and anesthetized by intraperitoneal injection of sodium pentobarbital, at a dose of 50-90 mg/kg diluted to 6 mg/ml. The pancreas was exposed through a left abdominal incision (1 cm, laparotomy) and treated with a 10-J/cm^2 dose of light using a diode laser (652 nm) and incidence fluence rate of 50 mW/cm^2 for 3.5 minutes. After PDT, the pancreas was carefully returned to the peritoneal cavity and the abdomen was closed. One day after light treatment, animals were sacrificed and the pancreases were harvested for subsequent evaluation. […]

For CC(C)C[C@H](NC(=O)[C@H](CO)NC(=O)[C@H](Cc1ccccc1)NC(=O)CNC(=O)[C@H](C)NC(=O)[C@H](CCC(N)=O)NC(=O)[C@@H](N)CCCNC(=N)N)C(=O)NCC(=O)CCC(=O)O [5-ALA prodrug, H-Arg-Gln-Ala-Gly-Phe-Ser-Leu-5-ALA-OH] (H-RQAGFSL-X1), the “Cell viability (MTS)” value (MPanc96-CTSE cells [1]) was “approximately 20%”.

In the case of NCC(=O)CCC(=O)O [free 5-ALA, 5-aminolevulinic acid], the “PpIX fluorescence signal in cells (TRITC channel)” value (MPanc96-CTSE cells [2]) is reported as “comparable” and the “Apoptosis in PDAC tissue sections (TUNEL)” value [3] is reported as “multiple apoptotic cells”.
